# Reference: patent US20160297851A1, “BROAD SPECTRUM […]” (priority 2012, published 2016)
# Where two headings read alike, the source gives them in different places.
# How the values were obtained:
# [1] = system: S. epidermidis PAS9002 (SPase S31P); format: cell-based, Staphylococcus epidermidis; conditions: Ser to Pro mutation at position 31 of SpsIB
# [2] = system: wild type P. aeruginosa PAO1; test: microbe, parasite or virus in culture; format: cell-based, Pseudomonas aeruginosa
# [3] = system: E. coli strains harboring the indicated amino acid at SPase residue 84; test: microbe, parasite or virus in culture; format: cell-based; conditions: Escherichia coli
# [4] = system: Klebsiella pneumoniae ATCC 43816; test: microbe, parasite or virus in culture; format: cell-based; conditions: ATCC43816
# [5] = system: Corynebacterium efficiens DSM 44549; test: microbe, parasite or virus in culture; format: cell-based
# [6] = system: Rhodococcus equi ATCC 6939; test: microbe, parasite or virus in culture; format: cell-based; conditions: Rhodococcus (subgen. Prescottella) equi, ATCC6939
smiles,measurement,setting,value
"CCCCCCCCCCCCCCCC(=O)N(C)[C@H](CO)C(=O)N[C@H](C)C(=O)NCC(=O)N(C)[C@@H]1C(=O)N[C@@H](C)C(=O)N[C@H](C(=O)O)Cc2ccc(O)c(c2)-c2cc1ccc2O [Arylomycin C16, arylomycin C16]",fold elevated MIC compared to the wild type strain,[1],greater than 256 fold
same,MIC,"[2]; Pseudomonas aeruginosa, PAO1, Resistant strain (wild type), read-out: MIC",> 64 µg/mL
same,MIC,[2]; Resistant strain (wild type),>128 µg/mL
same,MIC,[3]; 'Phe or His' variant (temperature sensitive),2 µg/mL
same,MIC,[3]; His variant (temperature sensitive),4 µg/mL
same,MIC,[3]; Pro at SPase residue 84,> 256 µg/mL
same,MIC,[3]; all of the other amino acids at residue 84,≤ 16 µg/mL
same,MIC,[4],> 128 µg/mL
same,MIC,[5],16 µg/mL
same,MIC,[6],16 µg/mL
